From US7256203B2, “Dicationic 2,5-diarylfuran aza-analogs as anti-protozoan agents” (The University of North Carolina at Chapel Hill, priority 2002, dated 2007)
Counter-ions that a name gives are not always drawn. Like-named read-outs stand apart in the source and are kept apart here.

Columns and labels:
[1] = system: Trypanosoma brucei rhodesiense; test: In vitro anti-protozoan data, T. b. r.; type: cell-based
Plasmodium falciparum = test: In vitro anti-protozoan data, P. f.; type: cell-based
Leishmania donovani = test: In vitro anti-protozoan data, L. d.; type: cell-based
T. b. r. = test: CNS model in mice (2nd stage human African trypanosomiasis); type: in vivo; details: through day 120 of an experiment slated for 180 days
[2] = system: STIB900 strain of T. b. r.; test: Mouse model of virulent STIB900 strain of T. b. r.; type: in vivo
[3] = Trypanosoma brucei, RHODESIENSE, in vitro, read-out: T. b. r. IC50
[4] = Plasmodium falciparum, in vitro, read-out: P. f. IC50
[5] = Plasmodium falciparum, in vitro, read-out: IC-50 values versus Plasmodium falciparum (p.f.)
[6] = in vitro, read-out: T. b. r. IC50

SMILES	melting point	IC50 [1, 3]	IC50 (Plasmodium falciparum; [4])	IC50 (Leishmania donovani; Leishmania donovani)	further results
CC(=O)ONC(=N)c1ccc(-c2ccc(-c3ccc(C(=N)NOC(C)=O)nc3)o2)cc1 [Compound 19, N -Acetoxy-5-{5-[4-(N-Acetoxycarbamimidoyl)-phenyl]-furan-2-yl}-pyridine-2-carboxamidine]	267 to 270 °C	–	–	–	–
CC(=O)ONC(=N)c1ccc(Cc2ccc(-c3ccc(C(=N)NOC(C)=O)cn3)o2)cc1 [Compound 37, N-Acetoxy-6-{5-[4-(N-acetoxycarbamimidoyl)benzyl]-furan-2-yl}-nicotinamidine]	194 to 196 °C	–	–	–	–
CC(=O)ONC(=N)c1ccc(-c2ccc(-c3ccc(C(=N)NOC(C)=O)cc3C)o2)nc1 [Compound 30, N-Acetoxy-6-{5-[4-(N-acetoxycarbamimidoyl)-2-methyl-phenyl]-furan-2-yl}-nicotinamidine]	203 to 205 °C	–	–	–	–
CONC(=N)c1ccc(-c2ccc(-c3ccc(C(=N)NOC)cn3)o2)cc1 [Compound 5, N-Methoxy-6-{5-[4-(N-methoxy-carbamimidoyl)-phenyl]-furan-2-yl}-nicotinamidine]	–	37.1 µM	0.0049 µM	113 µM	parasite free mice in the CNS model (T. b. r.): parasite free mice; IC50 (Plasmodium falciparum; [5]): < 0.01 µM; cure of virulent STIB900 strain of T. b. r. in a mouse model [2]: cure
N=C(N)c1ccc(-c2ccc(-c3ccc(C(=N)N)cn3)o2)cc1 [Compound 7, 6-[5-(4-Carbamimidoyl-phenyl)-furan-2-yl]-nicotinamidine]	–	0.007 µM	–	101 µM	IC50 ([1]; Trypanosoma brucei, RHODESIENSE, read-out: IC-50 values versus Trypanosoma brucei rhodesiense (T.b.r.)): < 0.01 µM; IC50 (Plasmodium falciparum; Plasmodium falciparum, read-out: IC-50 values versus Plasmodium falciparum (p.f.)): < 0.01 µM; IC50 (Plasmodium falciparum; Plasmodium falciparum, read-out: P. f. IC50): 0.0065 µM; cure of virulent STIB900 strain of T. b. r. in a mouse model [2]: cure
N=C(N)c1ccc(-c2ccc(-c3ccc(C(=N)N)nc3)o2)cc1 [Compound 20, 5-[5-(4-Carbamimidoyl-phenyl)-furan-2-yl]-pyridine-2-carboxamidine actate salt]	–	–	–	–	IC50 [1, 6]: 0.0031 µM; IC50 (Leishmania donovani): 47 µM; IC50 (Plasmodium falciparum; in vitro, read-out: P. f. IC50): 0.0183 µM
CC(=O)ONC(=N)c1ccc(-c2ccc(-c3ccc(C(=N)NOC(C)=O)cn3)o2)nc1 [Compound 23, 2,5-Bis[5-(N-acetoxycarbamimidoyl)-2-pyridyl)furan]	299 to 300 °C	–	–	–	–
CONC(=N)c1ccc(-c2ccc(-c3ccc(C(=N)NOC)cn3)s2)cc1 [Compound 12, N-Methoxy-6-{5-[4-(N-methoxy-carbamimidoyl)-phenyl]-thiophn-2-yl}-nicotinamidine]	–	–	–	–	IC50 [1, 6]: 9.43 µM; IC50 (Plasmodium falciparum; in vitro, read-out: P. f. IC50): 0.133 µM
N=C(N)c1ccc(-c2ccc(-c3ccc(C(=N)N)cn3)o2)nc1 [Compound 24, 2,5-Bis[5-amidine-2-pyridyl)furan]	–	–	–	–	IC50 [1, 6]: 0.021 µM; IC50 (Leishmania donovani): 193 µM; IC50 (Plasmodium falciparum; in vitro, read-out: P. f. IC50): 0.083 µM

Second part, led by results:

melting point	IC50 [1, 3]	IC50 (Plasmodium falciparum; [4])	IC50 (Leishmania donovani; Leishmania donovani)	SMILES	further results
276 to 279 °C	200 µM	> 11.7 µM	–	N=C(NO)c1ccc(-c2ccc(-c3ccc(C(=N)NO)nc3)o2)cc1 [Compound 17, N-Hydroxy-5-{5-[4-(N-hydroxycarbamimidoyl)-phenyl]-furan-2-yl}-pyridine-2-carboxamidine]	–
214 to 216 °C	–	–	–	N=C(NO)c1ccc(Cc2ccc(-c3ccc(C(=N)NO)cn3)o2)cc1 [Compound 36, N-Hydroxy-6-{5-[4-(N-hydroxycarbamimidoyl)benzyl]-furan-2-yl}-nicotinamidine]	–
293 to 295 °C (dec.)	> 187 µM	> 10.4 µM	> 187 µM	N=C(NO)c1ccc(-c2ccc(-c3ccc(C(=N)NO)cn3)s2)cc1 [Compound 11, N-Hydroxy-6-{5-[4-(N-hydroxycarbamimidoyl)-phenyl]-thiophen-2-yl}-nicotinamidine]	–
–	11.1 µM	0.00177 µM	> 166 µM	CONC(=N)c1ccc(-c2ccc(-c3ccc(C(=N)NOC)cn3)o2)nc1 [Compound 27, 2,5-Bis[5-(N-methoxycarbamimidoyl)-2-pyridyl)furan]	IC50 (Plasmodium falciparum; [5]): < 0.01 µM
230 to 231 °C	–	–	–	N=C(NO)c1ccc(-c2ccc(C=Cc3ccccc3)o2)nc1 [Compound 33, N-Hydroxy-6-(5-styryl-furan-2-yl)-nicotinamidine]	–
142 to 143 °C	6.5 µM	8.5 µM	–	CONC(=N)c1ccc(-c2ccc(-c3ccc(C(=N)NOC)nc3)o2)cc1 [Compound 18, N-Methoxy-5-{5-[4-(N-methoxycarbamimidoyl)-phenyl]-furan-2-yl}-pyridin-2-carboxamidine]	–
272 to 274 °C (dec.)	55.8 µM	> 0.0102 µM	77 µM	N=C(NO)c1ccc(-c2ccc(-c3ccc(C(=N)NO)cn3)o2)nc1 [Compound 22, 2,5-Bis[5-(N-hydroxycarbamimidoyl)-2-pyridyl)furan]	–
–	120 µM	0.0043 µM	> 195 µM	N=C(NO)c1ccc(-c2ccc(-c3ccc(C(=N)NO)cn3)o2)cc1 [Compound 4, N-Hydroxy-6-{5-[4-(N-hydroxycarbamimidoyl)-phenyl]-furan-2-yl}-nicotinamidine]	IC50 (Plasmodium falciparum; [5]): < 0.01 µM
196 to 198 °C	–	–	–	Cc1cc(C(=N)NO)ccc1-c1ccc(-c2ccc(C(=N)NO)cn2)o1 [Compound 29, N-Hydroxy-6-{5-[4-(N-hydroxycarbamimidoyl)-2-methyl-phenyl]-furan-2-yl}-nicotinamidine]	–
